Assay [1] concerns the target T1, Maternal embryonic leucine zipper kinase (Homo sapiens, UniProt Q14680). The experiment in a line: Binding affinity to human N-terminal His-tagged MELK (1 to 337 residues) expressed in Escherichia coli BL21 pLysS at 50 uM by STD-NMR analysis.
Target sequence in this assay (Q14680 whole entry, looked up, the tested form may be a part): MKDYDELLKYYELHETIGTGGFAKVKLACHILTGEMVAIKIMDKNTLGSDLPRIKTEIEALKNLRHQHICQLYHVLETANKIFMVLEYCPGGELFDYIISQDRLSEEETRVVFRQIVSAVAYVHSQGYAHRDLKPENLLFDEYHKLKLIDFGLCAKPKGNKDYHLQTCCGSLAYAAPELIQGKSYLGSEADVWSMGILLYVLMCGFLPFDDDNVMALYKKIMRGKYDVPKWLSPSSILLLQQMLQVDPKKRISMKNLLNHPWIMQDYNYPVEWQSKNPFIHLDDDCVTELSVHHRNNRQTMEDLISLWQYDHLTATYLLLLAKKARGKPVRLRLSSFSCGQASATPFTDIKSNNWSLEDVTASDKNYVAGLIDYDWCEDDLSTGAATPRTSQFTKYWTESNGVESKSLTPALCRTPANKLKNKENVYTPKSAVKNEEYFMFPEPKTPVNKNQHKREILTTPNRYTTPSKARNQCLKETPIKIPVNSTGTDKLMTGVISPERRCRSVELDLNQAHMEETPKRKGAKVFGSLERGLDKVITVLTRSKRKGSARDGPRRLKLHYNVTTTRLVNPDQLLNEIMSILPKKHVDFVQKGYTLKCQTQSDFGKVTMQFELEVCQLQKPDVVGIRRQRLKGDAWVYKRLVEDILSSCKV
For assay [2], the target named is T1, Maternal embryonic leucine zipper kinase. Briefly: Displacement of kinase tracer 236 from human N-terminal His-tagged MELK (1 to 337 residues) expressed in Escherichia coli BL21 pLysS by microscale thermophoresis assay.
Target sequence in this assay (Q14680 whole entry, the tested form may be a part): as the sequence (Q14680 whole entry, looked up, the tested form may be a part) above

Consider one compound from ChEMBL document CHEMBL4699400, “Discovery of a novel kinase hinge binder fragment by dynamic undocking” (RSC Med Chem, 2020).

The source made the active and inactive calls. The calls are words filed in the database; no cut-off is given here.

As to `Nc1cccc2cc[nH]c(=O)c12`, the result in assay [1] was Active. Moreover, in assay [2], the EC50 turned out to be 21.1 µM and affinity was put at a Ki of 5.47 µM.

A word on the EC50: it is the concentration needed to bring the measured effect to its halfway point. One may read the Ki as a measure of affinity in units of concentration, obtained from inhibition or displacement. High values mean lower affinity, low ones higher affinity.
